In one data set the test system is dipeptidyl peptidase IV. Kind of data set: DPP-IV assay (Example 5): hydrolysis followed by HPLC and ES-MS. The note with it: After 18 hr incubation, 37°C, 50 mM triethanolamine buffer, pH 7.8, 11 milliunits DPP-IV. The format is in vitro ADME. Here is the method: Biological Chemistry. 385, pp 169-177.
Briefly, 100 - 200 microgams of each peptide was dissolved in 0.5 ml of 50 mM triethanolamine buffer, pH 7.8. To this was added a 10 microlitre solution of 11 milliunits DPP-IV (Sigma) and the solutions incubated at 37°C for up to 42 hours. […] The incubations were terminated by addition of 5 microlitres TFA to each tube and 50 microlitre of each were injected onto a reversed phase 4.6 x 250 mm C18 HPLC column, eluting a gradient of 20% - 45% acetonitrile in 0.1 % TFA/water over 25 minutes. […] After 42 hours, the 2 analogues slowly degraded to a product that gave a mass spectrum consistent with the mass of the 9-37 sequence, indicating longer term instability of the urea bond. This represented as much as 15% of the product by HPLC. This degradation appeared to be non-DPP-IV related, since samples without enzyme gave the same profile.

In the next data set the test system is DPP-IV. The experiment in a line: Dipeptidyl peptidase IV (DPP-IV) assays (Example 10): DPP-IV digestion monitored by RP-HPLC. The format is in vitro ADME. The conditions noted are these: PBS/TEthA, pH 7.5, 37°.
A short description of data set [1]: Control study: chemical stability in PBS/triethanolamine solution in the absence of DPP-IV. It is filed as physicochemical. The conditions noted are these: no DPP-IV; for percentage of each analogue remaining: PBS/TEthA, pH 7.5, 37°. The method, then: In the control study, peptides were incubated with PBS/triethanolamine solution in the absence of DPP-IV to measure their chemical stability.

For data set [2] the following is noted: active form of GLP-1; DPP IV cleavage between Ala8 and Glu9; cited from earlier work.

Ends that are not written are not given here.

In the case of HAEGTFTSDVSSYLEG [GLP-1 7-22], the “cleavage of the N terminal dipeptide by DPP-IV” value in the data set with dipeptidyl peptidase IV was “completely cleaved”.

Take `CC[C@H](C)[C@H](NC(=O)[C@H](Cc1ccccc1)NC(=O)[C@H](CCC(=O)O)NC(=O)[C@H](CCCCN)NC(=O)[C@H](C)NC(=O)[C@H](C)NC(=O)[C@H](CCC(N)=O)NC(=O)CNC(=O)[C@H](CCC(=O)O)NC(=O)[C@H](CC(C)C)NC(=O)[C@H](Cc1ccc(O)cc1)NC(=O)[C@H](CO)NC(=O)[C@H](CO)NC(=O)[C@@H](NC(=O)[C@H](CC(=O)O)NC(=O)[C@H](CO)NC(=O)[C@@H](NC(=O)[C@H](Cc1ccccc1)NC(=O)[C@@H](NC(=O)CNC(=O)[C@H](CCC(=O)O)NC(=O)CONC[C@H](C)NC(=O)[C@@H](N)Cc1c[nH]cn1)[C@@H](C)O)[C@@H](C)O)C(C)C)C(=O)N[C@@H](C)C(=O)N[C@@H](Cc1c[nH]c2ccccc12)C(=O)N[C@@H](CC(C)C)C(=O)N[C@H](C(=O)N[C@@H](CCCCN)C(=O)NCC(=O)N[C@@H](CCCNC(=N)N)C(=O)NCC(=O)O)C(C)C` [SP005]: the “percentage of each analogue remaining” value in the data set on DPP-IV (Time 0 hr) is on record as 95%; with DPP-IV (Time 22 hr), 95%; in data set [1] (Time 0 hr), 98%; in data set [1] (Time 22 hr) it was 95%.

Take `CC[C@H](C)[C@H](NC(=O)[C@H](Cc1ccccc1)NC(=O)[C@H](CCC(=O)O)NC(=O)[C@H](CCCCN)NC(=O)[C@H](C)NC(=O)[C@H](C)NC(=O)[C@H](CCC(N)=O)NC(=O)CNC(=O)[C@H](CCC(=O)O)NC(=O)[C@H](CC(C)C)NC(=O)[C@H](Cc1ccc(O)cc1)NC(=O)[C@H](CO)NC(=O)[C@H](CO)NC(=O)[C@@H](NC(=O)[C@H](CC(=O)O)NC(=O)[C@H](CO)NC(=O)[C@@H](NC(=O)[C@H](Cc1ccccc1)NC(=O)[C@@H](NC(=O)CNC(=O)[C@H](CCC(=O)O)NC(=O)[C@H](C)NNC(=O)[C@@H](N)Cc1c[nH]cn1)[C@@H](C)O)[C@@H](C)O)C(C)C)C(=O)N[C@@H](C)C(=O)N[C@@H](Cc1c[nH]c2ccccc12)C(=O)N[C@@H](CC(C)C)C(=O)N[C@H](C(=O)N[C@@H](CCCCN)C(=O)NCC(=O)N[C@@H](CCCNC(=N)N)C(=O)NCC(=O)O)C(C)C` [SP008, L-His-NH-NH-CH(CH3)-C(O)-Glu9-37]: the “percentage of each analogue remaining” value in the data set on DPP-IV (Time 0 hr) came out at 95%; in the data set on DPP-IV (Time 22 hr) it was 95%; in data set [1] (Time 0 hr), 98%. Moreover, the non-enzymatic degradation in data set [1] (after 47 hr, by HPLC) is on record as 20-25%.

As for `CC[C@H](C)[C@H](NC(=O)[C@H](Cc1ccccc1)NC(=O)[C@H](CCC(=O)O)NC(=O)[C@H](CCCCN)NC(=O)[C@H](C)NC(=O)[C@H](C)NC(=O)[C@H](CCC(N)=O)NC(=O)CNC(=O)[C@H](CCC(=O)O)NC(=O)[C@H](CC(C)C)NC(=O)[C@H](Cc1ccc(O)cc1)NC(=O)[C@H](CO)NC(=O)[C@H](CO)NC(=O)[C@@H](NC(=O)[C@H](CC(=O)O)NC(=O)[C@H](CO)NC(=O)[C@@H](NC(=O)[C@H](Cc1ccccc1)NC(=O)[C@@H](NC(=O)CNC(=O)[C@H](CCC(=O)O)NC(=O)CNNC(=O)[C@H](C)NC(=O)[C@@H](N)Cc1c[nH]cn1)[C@@H](C)O)[C@@H](C)O)C(C)C)C(=O)N[C@@H](C)C(=O)N[C@@H](Cc1c[nH]c2ccccc12)C(=O)N[C@@H](CC(C)C)C(=O)N[C@H](C(=O)N[C@@H](CCCCN)C(=O)NCC(=O)N[C@@H](CCCNC(=N)N)C(=O)NCC(=O)O)C(C)C` [SP007, L-His-L-Ala-NH-NH-CH2-C(O)-Glu9-37], the “percentage of each analogue remaining” value with DPP-IV (Time 0 hr) is 95%; with DPP-IV (Time 22 hr) it was less than 5%; in data set [1] (Time 0 hr) it was 98%; in data set [1] (Time 22 hr) it was 95%; in data set [1] (Time 47 hr), 95%.

Take `CC[C@H](C)[C@H](NC(=O)[C@H](Cc1ccccc1)NC(=O)[C@H](CCC(=O)O)NC(=O)[C@H](CCCCN)NC(=O)[C@H](C)NC(=O)[C@H](C)NC(=O)[C@H](CCC(N)=O)NC(=O)CNC(=O)[C@H](CCC(=O)O)NC(=O)[C@H](CC(C)C)NC(=O)[C@H](Cc1ccc(O)cc1)NC(=O)[C@H](CO)NC(=O)[C@H](CO)NC(=O)[C@@H](NC(=O)[C@H](CC(=O)O)NC(=O)[C@H](CO)NC(=O)[C@@H](NC(=O)[C@H](Cc1ccccc1)NC(=O)[C@@H](NC(=O)CNC(=O)[C@H](CCC(=O)O)NC(=O)CNNC(=O)[C@@H](N)Cc1c[nH]cn1)[C@@H](C)O)[C@@H](C)O)C(C)C)C(=O)N[C@@H](C)C(=O)N[C@@H](Cc1c[nH]c2ccccc12)C(=O)N[C@@H](CC(C)C)C(=O)N[C@H](C(=O)N[C@@H](CCCCN)C(=O)NCC(=O)N[C@@H](CCCNC(=N)N)C(=O)NCC(=O)O)C(C)C` [SP006, L-His-NH-NH-CH2-C(O)-Glu9-37]: the “percentage of each analogue remaining” value in the data set on DPP-IV (Time 0 hr) is recorded as 95%; in data set [1] (Time 0 hr), 98%.

With `CC[C@H](C)[C@H](NC(=O)[C@H](Cc1ccccc1)NC(=O)[C@H](CCC(=O)O)NC(=O)[C@H](CCCCN)NC(=O)[C@H](C)NC(=O)[C@H](C)NC(=O)[C@H](CCC(N)=O)NC(=O)CNC(=O)[C@H](CCC(=O)O)NC(=O)[C@H](CC(C)C)NC(=O)[C@H](Cc1ccc(O)cc1)NC(=O)[C@H](CO)NC(=O)[C@H](CO)NC(=O)[C@@H](NC(=O)[C@H](CC(=O)O)NC(=O)[C@H](CO)NC(=O)[C@@H](NC(=O)[C@H](Cc1ccccc1)NC(=O)[C@@H](NC(=O)CNC(=O)[C@H](CCC(=O)O)NC(=O)[C@H](C)NC(=O)[C@@H](N)Cc1c[nH]cn1)[C@@H](C)O)[C@@H](C)O)C(C)C)C(=O)N[C@@H](C)C(=O)N[C@@H](Cc1c[nH]c2ccccc12)C(=O)N[C@@H](CC(C)C)C(=O)N[C@H](C(=O)N[C@@H](CCCCN)C(=O)NCC(=O)N[C@@H](CCCN=C(N)N)C(=O)NCC(=O)O)C(C)C` [Native GLP-1 7-37, glucagon-like peptide-1 (7-37)], the circulating half-life result in data set [2] is given as “less than 2 minutes”.

The values above are taken from EP1943275B1, “INSULINOTROPIC COMPOUNDS AND USES THEREOF” (Activotec SPP Limited, priority 2005, dated 2010).
